Converted amounts (≈) assume the structure as drawn.
How the values were obtained:
Type in all cases: functional
Candida albicans [1] = assay: Antifungal activity against Candida albicans Y0109 assessed as reduction in fungal growth incubated for 24 hrs by NCCLS based assay
Candida albicans [2] = assay: Antifungal activity against Candida albicans SC5314 assessed as reduction in fungal growth incubated for 24 hrs by NCCLS based assay
Nakaseomyces glabratus = assay: Antifungal activity against Candida glabrata 537 assessed as reduction in fungal growth incubated for 72 hrs by NCCLS based assay
Cryptococcus neoformans = assay: Antifungal activity against Cryptococcus neoformans 32609 assessed as reduction in fungal growth incubated for 72 hrs by NCCLS based assay
Aspergillus fumigatus = assay: Antifungal activity against Aspergillus fumigatus 7544 assessed as reduction in fungal growth incubated for 5 to 7 days by NCCLS based assay; details: time 5-7 day
Trichophyton rubrum = assay: Antifungal activity against Trichophyton rubrum assessed as reduction in fungal growth incubated for 5 to 7 days by NCCLS based assay; details: time 5-7 day
Nannizzia gypsea = assay: Antifungal activity against Microsporum gypseum assessed as reduction in fungal growth incubated for 5 to 7 days by NCCLS based assay; details: time 5-7 day
Staphylococcus aureus [3] = assay: Antibacterial activity against Staphylococcus aureus assessed as diameter of inhibition zone incubated for 24 hrs by well diffusion assay
Bacillus subtilis = assay: Antibacterial activity against Bacillus subtilis RCMB 010069 assessed as diameter of inhibition zone incubated for 24 hrs by well diffusion assay
Proteus vulgaris = assay: Antibacterial activity against Proteus vulgaris RCMB 004 assessed as diameter of inhibition zone incubated for 24 hrs by well diffusion assay
Escherichia coli = assay: Antibacterial activity against Escherichia coli RCMB 010052 assessed as diameter of inhibition zone incubated for 24 hrs by well diffusion assay
Aspergillus flavus = assay: Antifungal activity against Aspergillus flavus assessed as diameter of inhibition zone incubated for 24 hrs by well diffusion assay
Geotrichum candidum = assay: Antifungal activity against Geotrichum candidum RCMB 052006 assessed as diameter of inhibition zone incubated for 24 hrs by well diffusion assay
[4] = system: Staphylococcus epidermidis; assay: Antibacterial activity against Methicillin-sensitive Staphylococcus epidermidis assessed as bacterial growth inhibition
[5] = system: Staphylococcus epidermidis; assay: Antibacterial activity against Methicillin-resistant Staphylococcus epidermidis assessed as bacterial growth inhibition
Staphylococcus aureus [6] = assay: Antibacterial activity against Methicillin-resistant Staphylococcus aureus assessed as bacterial growth inhibition
Staphylococcus aureus [7] = assay: Antibacterial activity against Methicillin-sensitive Staphylococcus aureus assessed as bacterial growth inhibition
Enterococcus faecalis = assay: Antibacterial activity against Enterococcus faecalis assessed as bacterial growth inhibition
Enterococcus faecium = assay: Antibacterial activity against Enterococcus faecium assessed as inhibition of bacterial growth

Structure (SMILES)	diameter of the inhibition zone (DIZ) (Staphylococcus aureus [3]) [mm]	diameter of the inhibition zone (DIZ) (Bacillus subtilis) [mm]	diameter of the inhibition zone (DIZ) (Proteus vulgaris) [mm]	diameter of the inhibition zone (DIZ) (Escherichia coli) [mm]	diameter of the inhibition zone (DIZ) (Aspergillus flavus) [mm]	diameter of the inhibition zone (DIZ) (Geotrichum candidum) [mm]	MIC [4] [µg/mL]	MIC [5] [µg/mL]	MIC (Staphylococcus aureus [6]) [µg/mL]	MIC (Staphylococcus aureus [7]) [µg/mL]	MIC (Enterococcus faecalis) [µg/mL]	MIC (Enterococcus faecium) [µg/mL]	other results
COc1ccc(-c2cc(CO[C@H](C)[C@](O)(Cn3cncn3)c3ccc(F)cc3F)on2)cc1	–	–	–	–	–	–	–	–	–	–	–	–	MIC80 (Candida albicans [1]): 0.125 µg/mL (≈ 0.274 µM); MIC80 (Candida albicans [2]): 0.5 µg/mL (≈ 1.1 µM); MIC80 (Nakaseomyces glabratus): 0.5 µg/mL (≈ 1.1 µM); MIC80 (Cryptococcus neoformans): 1 µg/mL (≈ 2.19 µM); MIC80 (Aspergillus fumigatus): 4 µg/mL (≈ 8.76 µM); MIC80 (Trichophyton rubrum): 1 µg/mL (≈ 2.19 µM); MIC80 (Nannizzia gypsea): 1 µg/mL (≈ 2.19 µM)
Cc1c(C(=O)/C=C/c2cccnc2)nnn1-c1ccc(-n2nnc(C(=O)/C=C/c3cccnc3)c2C)cc1	17.3	29.3	17.8	23.7	18.03	19.3	–	–	–	–	–	–	–
COc1c(N2C[C@H]3CCCN(C(=O)Cn4cc(CN5C(=O)C(=O)c6ccc(F)cc65)nn4)[C@H]3C2)c(F)cc2c(=O)c(C(=O)O)cn(C3CC3)c12	–	–	–	–	–	–	0.06 (≈ 0.0873 µM)	0.06 (≈ 0.0873 µM)	0.06 (≈ 0.0873 µM)	0.06 (≈ 0.0873 µM)	0.06 (≈ 0.0873 µM)	0.06 (≈ 0.0873 µM)	–
CO/N=C1/C(=O)N(Cc2cn(CC(=O)N3CCC[C@@H]4CN(c5c(F)cc6c(=O)c(C(=O)O)cn(C7CC7)c6c5OC)C[C@@H]43)nn2)c2cc(C)ccc21	–	–	–	–	–	–	0.06 (≈ 0.0842 µM)	0.06 (≈ 0.0842 µM)	0.06 (≈ 0.0842 µM)	0.06 (≈ 0.0842 µM)	0.06 (≈ 0.0842 µM)	0.06 (≈ 0.0842 µM)	–
CO/N=C1/C(=O)N(Cc2cn(CC(=O)N3CCC[C@@H]4CN(c5c(F)cc6c(=O)c(C(=O)O)cn(C7CC7)c6c5OC)C[C@@H]43)nn2)c2cc(F)ccc21	–	–	–	–	–	–	0.06 (≈ 0.0837 µM)	0.06 (≈ 0.0837 µM)	0.06 (≈ 0.0837 µM)	0.06 (≈ 0.0837 µM)	0.06 (≈ 0.0837 µM)	0.06 (≈ 0.0837 µM)	–
Cc1c(-c2cc(-c3c[nH]c4ccccc34)nc(S)n2)nnn1-c1ccc(-n2nnc(-c3cc(-c4c[nH]c5ccccc45)nc(S)n3)c2C)cc1	20.6	37.8	22.2	30.9	19.1	21.1	–	–	–	–	–	–	–
CCO/N=C1/C(=O)N(Cc2cn(CC(=O)N3CCC[C@@H]4CN(c5c(F)cc6c(=O)c(C(=O)O)cn(C7CC7)c6c5OC)C[C@@H]43)nn2)c2cccc(F)c21	–	–	–	–	–	–	0.06 (≈ 0.0821 µM)	0.06 (≈ 0.0821 µM)	0.06 (≈ 0.0821 µM)	0.06 (≈ 0.0821 µM)	0.06 (≈ 0.0821 µM)	0.06 (≈ 0.0821 µM)	–
Cc1c(-c2cc(-c3c[nH]c4ccccc34)[nH]n2)nnn1-c1ccc(-n2nnc(-c3cc(-c4c[nH]c5ccccc45)[nH]n3)c2C)cc1	19.3	33.5	19.2	28.4	19.5	23.9	–	–	–	–	–	–	–
COc1c(N2C[C@H]3CCCN(C(=O)Cn4cc(CN5C(=O)C(=O)c6ccc(C)cc65)nn4)[C@H]3C2)c(F)cc2c(=O)c(C(=O)O)cn(C3CC3)c12	–	–	–	–	–	–	0.06 (≈ 0.0878 µM)	0.06 (≈ 0.0878 µM)	0.06 (≈ 0.0878 µM)	0.06 (≈ 0.0878 µM)	0.06 (≈ 0.0878 µM)	0.06 (≈ 0.0878 µM)	–
Cc1c(C(=O)/C=C/c2c[nH]c3ccccc23)nnn1-c1ccc(-n2nnc(C(=O)/C=C/c3c[nH]c4ccccc34)c2C)cc1	12	34.2	15.4	25	19.2	17.2	–	–	–	–	–	–	–
Cc1c(C(=O)/C=C/c2ccccn2)nnn1-c1ccc(-n2nnc(C(=O)/C=C/c3ccccn3)c2C)cc1	22.02	32.2	24.37	31.3	22	24	–	–	–	–	–	–	–
CCO/N=C1/C(=O)N(Cc2cn(CC(=O)N3CCC[C@@H]4CN(c5c(F)cc6c(=O)c(C(=O)O)cn(C7CC7)c6c5OC)C[C@@H]43)nn2)c2ccccc21	–	–	–	–	–	–	0.06 (≈ 0.0842 µM)	0.06 (≈ 0.0842 µM)	0.06 (≈ 0.0842 µM)	0.06 (≈ 0.0842 µM)	0.06 (≈ 0.0842 µM)	0.06 (≈ 0.0842 µM)	–
COc1c(N2C[C@@H]3CCCN[C@@H]3C2)c(F)cc2c(=O)c(C(=O)O)cn(C3CC3)c12 [MOXIFLOXACIN]	–	–	–	–	–	–	0.06 (≈ 0.149 µM)	0.06 (≈ 0.149 µM)	0.06 (≈ 0.149 µM)	0.06 (≈ 0.149 µM)	0.06 (≈ 0.149 µM)	0.06 (≈ 0.149 µM)	–
C[C@@H](c1nc(-c2ccc(C#N)cc2)cs1)[C@](O)(Cn1cncn1)c1ccc(F)cc1F [RAVUCONAZOLE]	–	–	–	–	–	–	–	–	–	–	–	–	MIC80 (Candida albicans [1]): 0.062 µg/mL (≈ 0.142 µM); MIC80 (Candida albicans [2]): 0.25 µg/mL (≈ 0.571 µM); MIC80 (Nakaseomyces glabratus): 0.125 µg/mL (≈ 0.286 µM); MIC80 (Cryptococcus neoformans): 0.125 µg/mL (≈ 0.286 µM); MIC80 (Aspergillus fumigatus): 2 µg/mL (≈ 4.57 µM); MIC80 (Trichophyton rubrum): 0.125 µg/mL (≈ 0.286 µM); MIC80 (Nannizzia gypsea): 1 µg/mL (≈ 2.29 µM)
